From ChEMBL document CHEMBL4033677, “Design and synthesis of pyrazolo[3,4-d]pyrimidines: Nitric oxide releasing compounds targeting hepatocellular carcinoma” (Bioorg Med Chem, 2017)

Experiments:
Assay type in all cases: functional
[1] = system: MOLT-4; experiment: Growth inhibition of human MOLT4 cells assessed as cell growth at 10^-5 M incubated for 48 hrs by sulforhodamine B assay relative to control; settings: MOLT-4, 48 h, read-out: Activity
[2] = system: A549; experiment: Growth inhibition of human A549/ATCC cells assessed as cell growth at 10^-5 M incubated for 48 hrs by sulforhodamine B assay relative to control; settings: A549, 48 h, read-out: Activity
[3] = system: EKVX; experiment: Growth inhibition of human EKVX cells assessed as cell growth at 10^-5 M incubated for 48 hrs by sulforhodamine B assay relative to control; settings: read-out: Activity
[4] = system: HCC 2998; experiment: Growth inhibition of human HCC2998 cells assessed as cell growth at 10^-5 M incubated for 48 hrs by sulforhodamine B assay relative to control; settings: HCC 2998, 48 h, read-out: Activity
[5] = system: KM12; experiment: Growth inhibition of human KM12 cells assessed as cell growth at 10^-5 M incubated for 48 hrs by sulforhodamine B assay relative to control; settings: KM12, 48 h, read-out: Activity
[6] = system: SW-620; experiment: Growth inhibition of human SW620 cells assessed as cell growth at 10^-5 M incubated for 48 hrs by sulforhodamine B assay relative to control; settings: SW-620, 48 h, read-out: Activity
[7] = system: SF-268; experiment: Growth inhibition of human SF268 cells assessed as cell growth at 10^-5 M incubated for 48 hrs by sulforhodamine B assay relative to control; settings: SF-268, 48 h, read-out: Activity
[8] = system: SF-539; experiment: Growth inhibition of human SF539 cells assessed as cell growth at 10^-5 M incubated for 48 hrs by sulforhodamine B assay relative to control; settings: SF-539, 48 h, read-out: Activity
[9] = system: SNB-19; experiment: Growth inhibition of human SNB19 cells assessed as cell growth at 10^-5 M incubated for 48 hrs by sulforhodamine B assay relative to control; settings: SNB-19, 48 h, read-out: Activity
[10] = system: SNB-75; experiment: Growth inhibition of human SNB75 cells assessed as cell growth at 10^-5 M incubated for 48 hrs by sulforhodamine B assay relative to control; settings: SNB-75, 48 h, read-out: Activity
[11] = system: LOX IMVI; experiment: Growth inhibition of human LOXIMVI cells assessed as cell growth at 10^-5 M incubated for 48 hrs by sulforhodamine B assay relative to control; settings: read-out: Activity
[12] = system: IGROV-1; experiment: Growth inhibition of human IGROV1 cells assessed as cell growth at 10^-5 M incubated for 48 hrs by sulforhodamine B assay relative to control; settings: IGROV-1, 48 h, read-out: Activity
[13] = system: OVCAR-5; experiment: Growth inhibition of human OVCAR5 cells assessed as cell growth at 10^-5 M incubated for 48 hrs by sulforhodamine B assay relative to control; settings: OVCAR-5, 48 h, read-out: Activity
[14] = system: NCI/ADR-RES; experiment: Growth inhibition of human NCI/ADR-RES cells assessed as cell growth at 10^-5 M incubated for 48 hrs by sulforhodamine B assay relative to control; settings: read-out: Activity
[15] = system: 786-0; experiment: Growth inhibition of human 786-0 cells assessed as cell growth at 10^-5 M incubated for 48 hrs by sulforhodamine B assay relative to control; settings: 786-0, 48 h, read-out: Activity
[16] = system: ACHN; experiment: Growth inhibition of human ACHN cells assessed as cell growth at 10^-5 M incubated for 48 hrs by sulforhodamine B assay relative to control; settings: read-out: Activity
[17] = system: CAKI-1; experiment: Growth inhibition of human Caki1 cells assessed as cell growth at 10^-5 M incubated for 48 hrs by sulforhodamine B assay relative to control; settings: CAKI-1, 48 h, read-out: Activity
[18] = system: RXF 393; experiment: Growth inhibition of human RXF393 cells assessed as cell growth at 10^-5 M incubated for 48 hrs by sulforhodamine B assay relative to control; settings: RXF 393, 48 h, read-out: Activity
[19] = system: UO-31; experiment: Growth inhibition of human UO31 cells assessed as cell growth at 10^-5 M incubated for 48 hrs by sulforhodamine B assay relative to control; settings: UO-31, 48 h, read-out: Activity
[20] = system: DU-145; experiment: Growth inhibition of human DU145 cells assessed as cell growth at 10^-5 M incubated for 48 hrs by sulforhodamine B assay relative to control; settings: DU-145, 48 h, read-out: Activity
[21] = system: Hs-578T; experiment: Growth inhibition of human Hs 578T cells assessed as cell growth at 10^-5 M incubated for 48 hrs by sulforhodamine B assay relative to control; settings: read-out: Activity

SMILES	growth at 10 µM [1] [%]	growth at 10 µM [2] [%]	growth at 10 µM [3] [%]	growth at 10 µM [4] [%]	growth at 10 µM [5] [%]	growth at 10 µM [6] [%]	growth at 10 µM [7] [%]	growth at 10 µM [8] [%]	growth at 10 µM [9] [%]	growth at 10 µM [10] [%]	growth at 10 µM [11] [%]	growth at 10 µM [12] [%]	growth at 10 µM [13] [%]	growth at 10 µM [14] [%]	growth at 10 µM [15] [%]	growth at 10 µM [16] [%]	growth at 10 µM [17] [%]	growth at 10 µM [18] [%]	growth at 10 µM [19] [%]	growth at 10 µM [20] [%]	further results
Cc1nc(Nc2ccc(OCCCBr)cc2)c2cnn(-c3ccccc3)c2n1	93.6	72.2	76.5	103	98.3	93.3	86.9	92.5	92.6	88.7	94.6	90.3	100	92.1	91.6	103	93.6	104	88.2	106	growth at 10 µM [21]: 82.6%
BrCCCOc1ccc(Nc2ncnc3c2cnn3-c2ccccc2)cc1	83.6	90.7	83.2	108	88.9	114	86	92.5	97.7	93.3	98.1	80.5	104	98.3	106	96.5	98.2	105	75.8	108	growth at 10 µM [21]: 101%
Cc1nc(Nc2ccc(OCCCBr)cc2)c2c(C)nn(-c3ccccc3)c2n1	92	78.7	90.9	107	96.6	111	93.8	98.3	94.5	105	98.3	91.8	91.4	107	83.6	108	94.8	97.9	95.7	109	growth at 10 µM [21]: 97.3%
Cc1nn(-c2ccccc2)c2ncnc(Nc3ccc(OCCCBr)cc3)c12	83.7	60.9	92.5	107	99.6	108	103	96	94.7	115	106	105	103	102	64.3	109	92.1	102	92.4	108	growth at 10 µM [21]: 111%
